Results as given in patent US7732604B2, “Triazolopyrazine derivatives” (Pfizer Inc., priority 2006, dated 2010).
pKi: −log10 of the molar value.

target: T1, HGFR (Homo sapiens, UniProt P08581); assay: HGFR continuous-coupled spectrophotometric assay (tyrosine kinase activity on Met-2 substrate peptide); format: biochemical; details: HGFR 50 nM, Met-2 peptide 0.5 mM, ATP 300 μM, 37° C., absorbance 340 nm; read-out: Ki
T1 construct: purchased Upstate 14-526
T1 sequence (P08581 974-1390 limits assumed): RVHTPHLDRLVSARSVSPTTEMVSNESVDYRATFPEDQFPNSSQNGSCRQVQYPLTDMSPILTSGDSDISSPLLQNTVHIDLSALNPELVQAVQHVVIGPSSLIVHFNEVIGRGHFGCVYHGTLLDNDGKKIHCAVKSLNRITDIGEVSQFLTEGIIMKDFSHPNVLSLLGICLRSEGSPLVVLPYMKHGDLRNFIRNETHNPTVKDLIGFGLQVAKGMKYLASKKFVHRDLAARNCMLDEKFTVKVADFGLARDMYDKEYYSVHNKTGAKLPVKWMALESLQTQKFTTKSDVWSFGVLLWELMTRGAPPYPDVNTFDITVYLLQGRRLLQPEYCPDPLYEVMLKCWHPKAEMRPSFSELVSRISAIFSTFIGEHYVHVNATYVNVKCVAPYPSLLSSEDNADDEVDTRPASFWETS

First: CNc1cnc2nnn(Cc3ccc4ncccc4c3)c2n1 [Example 57, Methyl-(3-quinolin-6-ylmethyl-3H-[1,2,3]triazolo[4,5-b]pyrazin-5-yl)-amine]
Second: COCCNc1cnc2nnn(Cc3ccc4ncccc4c3)c2n1 [Example 71, N-(2-meth-oxyethyl)-1-(quino-lin-6-yl-methyl)-1H-[1,2,3]tri-azolo[4,5-b]py-rain-6-amine]
The pKi of the first is 0.32 log units higher: 7.96 for the first, 7.64 for the second. The first binds more tightly here.

First: CC(O)Cn1cc(-c2cnc3nnn(Cc4ccc5ncccc5c4)c3n2)cn1 (stereo not drawn) [Example 59, 1-[4-(3-Quinolin-6-ylmethyl-3H-[1,2,3]triazolo[4,5-b]pyrazin-5-yl)-pyrazol-1-yl]-propan-2-ol]
Second: COC(=O)Cn1cc(-c2cnc3nnn(Cc4ccc5ncccc5c4)c3n2)cn1 [Example 66, [4-(3-Quinolin-6-ylmethyl-3H-[1,2,3]triazolo[4,5-b]pyrazin-5-yl)-pyrazol-1-yl]-acetic acid methyl ester]
The pKi of the first is 0.22 log units higher: 7.96 for the first, 7.74 for the second.

`c1cnc2ccc(Cn3nnc4ncc(-c5cnn([C@@H]6CCOC6)c5)nc43)cc2c1` [Example 61, 6-{6-[(R)-1-(Tetrahydro-furan-3-yl)-1H-pyrazol-4-yl]-[1,2,3]triazolo[4,5-b]pyrazin-1-ylmethyl}-quinoline] and `c1cnc2ccc(Cn3nnc4ncc(-c5cnn([C@H]6CCOC6)c5)nc43)cc2c1` [Example 62, 6-{6-[(S)-1-(Tetrahydro-furan-3-yl)-1H-pyrazol-4-yl]-[1,2,3]triazolo[4,5-b]pyrazin-1-ylmethyl}-quinoline] are within 0.2 log units of each other in pKi: 8.00 for the first, 7.89 for the second.

Compared with `Cc1n[nH]c(C)c1-c1cnc2nnn(Cc3ccc4ncccc4c3)c2n1` [Example 63, 6-[6-(3,5-Dimethyl-1H-pyrazol-4-yl)-[1,2,3]triazolo[4,5-b]pyrazin-1-ylmethyl]-quinoline], `c1cnc2ccc(Cn3nnc4ncc(-c5ccn[nH]5)nc43)cc2c1` [Example 69, 6-[6-(2H-Pyrazol-3-yl)-[1,2,3]triazolo[4,5-b]pyrazin-1-ylmethyl]-quinoline] is 0.86 log units higher in pKi: 7.66 for the first, 8.52 for the second.

Going from `Cn1nc(C(F)(F)F)cc1-c1cnc2nnn(Cc3ccc4ncccc4c3)c2n1` [Example 64, 6-[6-(2-Methyl-5-trifluoromethyl-2H-pyrazol-3-yl)-[1,2,3]triazolo[4,5-b]pyrazin-1-ylmethyl]-quinoline] to `CC(C)(C(N)=O)n1cc(-c2cnc3nnn(Cc4ccc5ncccc5c4)c3n2)cn1` [Example 67, 2-[4-(3-Quinolin-6-ylmethyl-3H-[1,2,3]triazolo[4,5-b]pyrazin-5-yl)-pyrazol-1-yl]-isobutyramide], the pKi falls from 8.40 to 7.39 (1.01 log units).

First: COC(=O)C(C)(C)n1cc(-c2cnc3nnn(Cc4ccc5ncccc5c4)c3n2)cn1 [Example 65, 2-Methyl-2-[4-(3-quinolin-6-ylmethyl-3H-[1,2,3]triazolo[4,5-b]pyrazin-5-yl)-pyrazol-1-yl]-propionic acid methyl ester]
Second: CC(C)(C(=O)O)n1cc(-c2cnc3nnn(Cc4ccc5ncccc5c4)c3n2)cn1 [Example 68, 2-Methyl-2-[4-(3-quinolin-6-ylmethyl-3H-[1,2,3]triazolo[4,5-b]pyrazin-5-yl)-pyrazol-1-yl]-propionic acid]
The pKi of the first is 0.24 log units lower: 7.33 for the first, 7.57 for the second.

`CC(C)N(CCO)c1cnc2nnn(Cc3ccc4ncccc4c3)c2n1` [Example 73, 2-{isopropyl[1-(quino-lin-6-yl-methyl)-1H-[1,2,3]tri-azolo[4,5-b]py-razyl-6-yl]ami-no}ethanol] and `CN(CCO)c1cnc2nnn(Cc3ccc4ncccc4c3)c2n1` [Example 78, 2-{methyl[1-(quino-lin-6-yl-methyl)-1H-[1,2,3]tri-azolo[4,5-b]py-razin-6-yl]ami-no}ethanol] are the same in pKi: 7.43 for the first, 7.43 for the second.

`CCN(CCO)c1cnc2nnn(Cc3ccc4ncccc4c3)c2n1` [Example 74, 2-{ethyl[1-(quino-lin-6-yl-methyl)-1H-[1,2,3]tri-azolo[4,5-b]py-razin-6-yl]ami-no}ethanol] and `CCCN(CCO)c1cnc2nnn(Cc3ccc4ncccc4c3)c2n1` [Example 84, 2-{propyl[1-(quino-lin-6-yl-methyl)-1H-[1,2,3]tri-azolo[4,5-b]pyra-zin-6-yl]amino}ethanol] are within 0.2 log units of each other in pKi: 7.48 for the first, 7.59 for the second.

`CC1C(=O)NCCN1c1cnc2nnn(Cc3ccc4ncccc4c3)c2n1` (stereo not drawn) [Example 75, 3-methyl-4-[1-(quino-lin-6-yl-methyl)-1H-[1,2,3]tri-azolo[4,5-b]py-razin-6-yl]pipe-razin-2-one] and `CCC1C(=O)NCCN1c1cnc2nnn(Cc3ccc4ncccc4c3)c2n1` (stereo not drawn) [Example 97, 3-ethyl-4-[1-(quino-lin-6-yl-methyl)-1H-[1,2,3]tri-azolo[4,5-b]pyra-zin-6-yl]pipe-razin-2-one] are within 0.2 log units of each other in pKi: 7.64 for the first, 7.70 for the second.

Going from `OC[C@@H]1CCCN1c1cnc2nnn(Cc3ccc4ncccc4c3)c2n1` [Example 76, {(2S)-1-[1-(quino-lin-6-yl-methyl)-1H-[1,2,3]tri-azolo[4,5-b]pyra-zin-6-yl]pyr-rolidin-2-yl}methanol] to `OC[C@@H]1C[C@H](F)CN1c1cnc2nnn(Cc3ccc4ncccc4c3)c2n1` [Example 96], the pKi rises from 7.19 to 7.77 (0.58 log units).

First: O=C1CCN(c2cnc3nnn(Cc4ccc5ncccc5c4)c3n2)CCN1 [Example 79, 1-[1-(quinolin-6-yl-methyl)-1H-[1,2,3]tri-azolo[4,5-b]py-razin-6-yl]-14-di-azepan-5-one]
Second: O=C1CN(c2cnc3nnn(Cc4ccc5ncccc5c4)c3n2)CCN1 [Example 83, 4-[1-(quinolin-6-yl-methyl)-1H-[1,2,3]tri-azolo[4,5-b]py-razin-6-yl]pipe-razin-2-one]
The pKi of the first is 0.49 log units higher: 7.96 for the first, 7.47 for the second. The first binds more tightly here.

`OCC1CCN(c2cnc3nnn(Cc4ccc5ncccc5c4)c3n2)CC1` [Example 80, {1-[1-(quinolin-6-yl-methyl)-1H-[1,2,3]tri-azolo[4,5-b]py-razin-6-yl]pipe-ridin-4-yl}methanol] and `N#CC1CCN(c2cnc3nnn(Cc4ccc5ncccc5c4)c3n2)CC1` [Example 86, 1-[1-(quinolin-6-yl-methyl)-1H-[1,2,3]tri-azolo[4,5-b]py-razin-6-yl]pipe-ridine-4-carbonitrile] are the same in pKi: 7.68 for the first, 7.68 for the second.

Compared with `CS(=O)(=O)C1CCN(c2cnc3nnn(Cc4ccc5ncccc5c4)c3n2)C1` (stereo not drawn) [Example 81, 6-({6-[3-(meth-ylsulfonyl)pyr-rolidin-1-yl]-1H-[1,2,3]tri-azolo[4,5-b]pyra-zin-1-yl}meth-yl)quinoline], `O[C@@H]1CCN(c2cnc3nnn(Cc4ccc5ncccc5c4)c3n2)C[C@H]1O` [Example 99, (3R,4R)-1-[1-(quino-lin-6-yl-methyl)-1H-[1,2,3]tri-azolo[4,5-b]pyra-zin-6-yl]pipe-ridine-3,4-diol] is 0.31 log units higher in pKi: 7.37 for the first, 7.68 for the second.

First: CCN1CCN(c2cnc3nnn(Cc4ccc5ncccc5c4)c3n2)C(C)C1=O (stereo not drawn) [Example 82, 1-ethyl-3-meth-yl-4-[1-(quino-lin-6-yl-methyl)-1H-[1,2,3]tri-azolo[4,5-b]pyra-zin-6-yl]pipe-razin-2-one]
Second: CC1C(=O)N(C)CCN1c1cnc2nnn(Cc3ccc4ncccc4c3)c2n1 (stereo not drawn) [Example 88, 13-dimethyl-4-[1-(quino-lin-6-yl-methyl)-1H-[1,2,3]tri-azolo[4,5-b]pyra-zin-6-yl]pipe-razin-2-one]
The pKi of the first is 0.52 log units higher: 7.82 for the first, 7.30 for the second. The first binds more tightly here.

Compared with `CN(CCS(C)(=O)=O)c1cnc2nnn(Cc3ccc4ncccc4c3)c2n1` [Example 85, N-methyl-N-[2-(meth-ylsulfonyl)ethyl]-1-(quino-lin-6-yl-methyl)-1H-[1,2,3]tri-azolo[4,5-b]pyra-zin-6-amine], `CCc1nc(CN(C)c2cnc3nnn(Cc4ccc5ncccc5c4)c3n2)no1` [Example 87, N-[(5-ethyl-124-oxa-diazol-3-yl)meth- ]-N-meth-yl-1-(quino-lin-6-yl-methyl)-1H-[1,2,3]tri-azolo[4,5-b]pyra-zin-6-amine] is 0.65 log units lower in pKi: 7.92 for the first, 7.27 for the second.

First: CN1CCN(c2cnc3nnn(Cc4ccc5ncccc5c4)c3n2)CC1=O [Example 89, 1-methyl-4-[1-(quino-lin-6-yl-methyl)-1H-[1,2,3]tri-azolo[4,5-b]pyra-zin-6-yl]pipe-razin-2-one]
Second: c1cnc2ccc(Cn3nnc4ncc(N5CCc6[nH]ncc6C5)nc43)cc2c1 [Example 98, 6-{[6-(1,4,6,7-tetra-hydro-5H-pyra-zolo[4,3-c]pyri-din-5-yl)-1H-[1,2,3]tri-azolo[4,5-b]pyra-zin-1-yl]meth-yl}quinoline]
The pKi of the first is 0.50 log units lower: 7.39 for the first, 7.89 for the second.

`CC1(CO)CCCN(c2cnc3nnn(Cc4ccc5ncccc5c4)c3n2)C1` (stereo not drawn) [Example 90, {3-methyl-1-[1-(quino-lin-6-yl-methyl)-1H-[1,2,3]tri-azolo[4,5-b]pyra-zin-6-yl]pipe-ridin-3-yl}methanol] and `CC1(CO)CCN(c2cnc3nnn(Cc4ccc5ncccc5c4)c3n2)CC1` [Example 94, {4-methyl-1-[1-(quino-lin-6-yl-methyl)-1H-[1,2,3]tri-azolo[4,5-b]pyra-zin-6-yl]pipe-ridin-4-yl}methanol] are within 0.2 log units of each other in pKi: 7.41 for the first, 7.44 for the second.

`CCc1noc(CN(C)c2cnc3nnn(Cc4ccc5ncccc5c4)c3n2)n1` [Example 91, N-[(3-ethyl-124-oxa-diazol-5-yl)meth-yl]-N-meth-yl-1-(quino-lin-6-yl-methyl)-1H-[1,2,3]tri-azolo[4,5-b]pyra-zin-6-amine] and `CN(Cc1noc(C2CC2)n1)c1cnc2nnn(Cc3ccc4ncccc4c3)c2n1` [Example 95, N-[(5-cyclo-propyl-1,2,4-oxa-diazol-3-yl)meth-yl]-N-methyl-1-(quino-lin-6-yl-methyl)-1H-[1,2,3]tri-azolo[4,5-b]pyra-zin-6-amine] are within 0.2 log units of each other in pKi: 7.60 for the first, 7.70 for the second.

Going from `c1cnc2ccc(Cn3nnc4ncc(N5CCC(CCn6cccn6)CC5)nc43)cc2c1` [Example 92, 6-[(6-{4-[2-(1H-pyra-zol-1-yl)eth-yl]piperidin-1-yl}-1H-[1,2,3]tri-azolo[4,5-b]pyra-zin-1-yl)meth-yl]quinoline] to `CN(Cc1cc(-c2ccccn2)no1)c1cnc2nnn(Cc3ccc4ncccc4c3)c2n1` [Example 93, N-methyl-N-[(3-pyri-din-2-ylisoxa-zol-5-yl)meth-yl]-1-(quino-lin-6-yl-methyl)-1H-[1,2,3]tri-azolo[4,5-b]pyra-zin-6-amine], the pKi falls from 7.80 to 7.54 (0.26 log units). The first binds more tightly here.

same assay, conditions: Ki, HGFR 50 nM, Met-2 peptide 0.5 mM, ATP 300 μM, 37° C., absorbance 340 nm

`OCCN(CCO)c1cnc2nnn(Cc3ccc4ncccc4c3)c2n1` [Example 77, 2,2′-{[1-(quino-lin-6-yl-methyl)-1H-[1,2,3]tri-azolo[4,5-b]py-razin-6-yl]imi-no}diethanol] showed a pKi of 7.72.
